Patent publication US20260001847A1, “HERBICIDAL QUINOLONE DERIVATIVES” (SYNGENTA CROP PROTECTION AG, priority 2022, published 2026)

Tests used:
Format in all cases: in vivo
Conditions in all cases: 1000 g/ha, evaluated after 13 days
[1] = system: Ipomoea hederacea (IPOHE); assay: Pre-emergence Test
[2] = system: Zea mays (ZEAMX); assay: Pre-emergence Test
[3] = system: Echinochloa crus-galli (ECHCG); assay: Post-emergence Test
Description: (§1) Seeds of a variety of test species are sown in standard soil in pots (Abutilon theophrasti (ABUTH), Ipomoea hederacea (IPOHE). Setaria faberi (SETFA), Echinochloa crus-galli (ECHCG), Zea mays (ZEAMX), Amaranthus retoflexus (AMARE), Solanum nigrum (SOLNI), Lolium perenne (LOLPE), Amaranthus palmeri (AMAPA)). After 8 days cultivation under controlled conditions in a glasshouse (at 24° C./16° C., day/night-; 14 hours light; 65% humidity), the plants are sprayed with an aqueous spray solution derived from the formulation of the technical active ingredient in acetone/water (50:50) solution containing 0.5% Tween 20 (polyoxyethylene sorbitan monolaurate, CAS RN 9005-64-5). Compounds are applied at 1000 g/ha unless otherwise stated. The test plants are then grown in a glasshouse under controlled conditions in a glasshouse (at 24° C./16° C., day/night; 14 hours light; 65% humidity) and watered twice daily. After 13 days the test is evaluated for the percentage damage caused to the plant. The biological activities are shown in the following table on a five-point scale (5=81-100%; 4=61-80%; 3=41-60%; 2=21-40%; 1=0-20%; -=not tested).

[4] = system: Zea mays (ZEAMX); assay: Post-emergence Test
Description: as §1

[5] = system: Amaranthus retoflexus (AMARE); assay: Post-emergence Test
Description: as §1

[6] = system: Ipomoea hederacea (IPOHE); assay: Post-emergence Test
Description: as §1

[7] = system: Setaria faberi (SETFA); assay: Post-emergence Test
Description: as §1

[8] = system: Echinochloa crus-galli (ECHCG); assay: Pre-emergence Test
[9] = system: Abutilon theophrasti (ABUTH); assay: Pre-emergence Test
[10] = system: Setaria faberi (SETFA); assay: Pre-emergence Test
[11] = system: Solanum nigrum (SOLNI); assay: Pre-emergence Test
[12] = system: Abutilon theophrasti (ABUTH); assay: Post-emergence Test
Description: as §1

[13] = system: Lolium perenne (LOLPE); assay: Post-emergence Test
Description: as §1

[14] = system: Solanum nigrum (SOLNI); assay: Post-emergence Test
Description: as §1

[15] = system: Lolium perenne (LOLPE); assay: Pre-emergence Test
[16] = system: Amaranthus retoflexus (AMARE); assay: Pre-emergence Test
[17] = system: Amaranthus palmeri (AMAPA); assay: Pre-emergence Test
[18] = system: Amaranthus palmeri (AMAPA); assay: Post-emergence Test
Description: as §1

SMILES: CCn1c(-c2ccc(Cl)c(Cl)c2)c(C(=O)O)c(=O)c2ccc(OC)cc21 [Compound 1, 2-(3,4-dichlorophenyl)-1-ethyl-7-methoxy-4-oxo-quinoline-3-carboxylic acid]
- percentage damage caused to the plant, IPOHE [1]: 2 (2=21-40%)
- percentage damage caused to the plant, ZEAMX [2]: 1 (1=0-20%)
- percentage damage caused to the plant, ECHCG [3]: 1 (1=0-20%)
- percentage damage caused to the plant, ZEAMX [4]: 0
- percentage damage caused to the plant, AMARE [5]: 0
- percentage damage caused to the plant, IPOHE [6]: 3 (3=41-60%)
- percentage damage caused to the plant, SETFA [7]: 2 (2=21-40%)
- percentage damage caused to the plant, ECHCG [8]: 1 (1=0-20%)
- percentage damage caused to the plant, ABUTH [9]: 3 (3=41-60%)
- percentage damage caused to the plant, SETFA [10]: 2 (2=21-40%)

SMILES: CCn1c(-c2ccc(Cl)c(Cl)c2)c(C(=O)O)c(=O)c2ccccc21 [Compound 3, 2-(3,4-dichlorophenyl)-1-ethyl-4-oxo-quinoline-3-carboxylic acid]
- percentage damage caused to the plant, IPOHE [1]: 3 (3=41-60%)
- percentage damage caused to the plant, SOLNI [11]: 4 (4=61-80%)
- percentage damage caused to the plant, ZEAMX [2]: 3 (3=41-60%)
- percentage damage caused to the plant, ECHCG [3]: 3 (3=41-60%)
- percentage damage caused to the plant, ABUTH [12]: 2 (2=21-40%)
- percentage damage caused to the plant, LOLPE [13]: 2 (2=21-40%)
- percentage damage caused to the plant, ZEAMX [4]: 1 (1=0-20%)
- percentage damage caused to the plant, AMARE [5]: 3 (3=41-60%)
- percentage damage caused to the plant, IPOHE [6]: 4 (4=61-80%)
- percentage damage caused to the plant, SOLNI [14]: 4 (4=61-80%)
- percentage damage caused to the plant, SETFA [7]: 4 (4=61-80%)
- percentage damage caused to the plant, ECHCG [8]: 5 (5=81-100%)
- percentage damage caused to the plant, ABUTH [9]: 1 (1=0-20%)
- percentage damage caused to the plant, LOLPE [15]: 3 (3=41-60%)
- percentage damage caused to the plant, AMARE [16]: 2 (2=21-40%)
- percentage damage caused to the plant, SETFA [10]: 5 (5=81-100%)

SMILES: CCn1c(-c2ccc(Cl)c(Cl)c2)c(C(=O)O)c(=O)c2cc(SC)ccc21 [Compound 11, 2-(3,4-dichlorophenyl)-1-ethyl-6-methylsulfanyl-4-oxo-quinoline-3-carboxylic acid]
- percentage damage caused to the plant, IPOHE [1]: 1 (1=0-20%)
- percentage damage caused to the plant, ZEAMX [2]: 2 (2=21-40%)
- percentage damage caused to the plant, AMAPA [17]: 3 (3=41-60%)
- percentage damage caused to the plant, ECHCG [3]: 4 (4=61-80%)
- percentage damage caused to the plant, AMAPA [18]: 3 (3=41-60%)
- percentage damage caused to the plant, ZEAMX [4]: 2 (2=21-40%)
- percentage damage caused to the plant, AMARE [5]: 2 (2=21-40%)
- percentage damage caused to the plant, IPOHE [6]: 1 (1=0-20%)
- percentage damage caused to the plant, SETFA [7]: 3 (3=41-60%)
- percentage damage caused to the plant, ECHCG [8]: 5 (5=81-100%)
- percentage damage caused to the plant, AMARE [16]: 1 (1=0-20%)
- percentage damage caused to the plant, SETFA [10]: 5 (5=81-100%)

SMILES: CCn1c(-c2ccc(Cl)c(Cl)c2)c(C(=O)O)c(=O)c2cc(S(C)(=O)=O)ccc21 [Compound 12, 2-(3,4-dichlorophenyl)-1-ethyl-6-methylsulfonyl-4-oxo-quinoline-3-carboxylic acid]
- percentage damage caused to the plant, IPOHE [1]: 1 (1=0-20%)
- percentage damage caused to the plant, ZEAMX [2]: 1 (1=0-20%)
- percentage damage caused to the plant, AMAPA [17]: 3 (3=41-60%)
- percentage damage caused to the plant, ECHCG [3]: 4 (4=61-80%)
- percentage damage caused to the plant, AMAPA [18]: 2 (2=21-40%)
- percentage damage caused to the plant, ZEAMX [4]: 1 (1=0-20%)
- percentage damage caused to the plant, AMARE [5]: 3 (3=41-60%)
- percentage damage caused to the plant, IPOHE [6]: 2 (2=21-40%)
- percentage damage caused to the plant, SETFA [7]: 3 (3=41-60%)
- percentage damage caused to the plant, ECHCG [8]: 5 (5=81-100%)
- percentage damage caused to the plant, AMARE [16]: 3 (3=41-60%)
- percentage damage caused to the plant, SETFA [10]: 5 (5=81-100%)

SMILES: CCn1c(-c2ccc(Cl)c(Cl)c2)c(C(=O)O)c(=O)c2cc(OC)ccc21 [Compound 15, 2-(3,4-dichlorophenyl)-1-ethyl-6-methoxy-4-oxo-quinoline-3-carboxylic acid]
- percentage damage caused to the plant, IPOHE [1]: 2 (2=21-40%)
- percentage damage caused to the plant, ZEAMX [2]: 1 (1=0-20%)
- percentage damage caused to the plant, AMAPA [17]: 3 (3=41-60%)
- percentage damage caused to the plant, ECHCG [3]: 3 (3=41-60%)
- percentage damage caused to the plant, AMAPA [18]: 2 (2=21-40%)
- percentage damage caused to the plant, ZEAMX [4]: 1 (1=0-20%)
- percentage damage caused to the plant, AMARE [5]: 2 (2=21-40%)
- percentage damage caused to the plant, IPOHE [6]: 2 (2=21-40%)
- percentage damage caused to the plant, SETFA [7]: 2 (2=21-40%)
- percentage damage caused to the plant, ECHCG [8]: 4 (4=61-80%)
- percentage damage caused to the plant, AMARE [16]: 3 (3=41-60%)
- percentage damage caused to the plant, SETFA [10]: 5 (5=81-100%)

SMILES: CCn1c(-c2ccc(F)cc2)c(C(=O)O)c(=O)c2ccccc21 [Compound 18, 1-ethyl-2-(4-fluorophenyl)-4-oxo-quinoline-3-carboxylic acid]
- percentage damage caused to the plant, IPOHE [1]: 0
- percentage damage caused to the plant, ZEAMX [2]: 0
- percentage damage caused to the plant, AMAPA [17]: 1 (1=0-20%)
- percentage damage caused to the plant, ECHCG [3]: 1 (1=0-20%)
- percentage damage caused to the plant, AMAPA [18]: 1 (1=0-20%)
- percentage damage caused to the plant, ZEAMX [4]: 1 (1=0-20%)
- percentage damage caused to the plant, AMARE [5]: 1 (1=0-20%)
- percentage damage caused to the plant, IPOHE [6]: 0
- percentage damage caused to the plant, SETFA [7]: 1 (1=0-20%)
- percentage damage caused to the plant, ECHCG [8]: 2 (2=21-40%)
- percentage damage caused to the plant, AMARE [16]: 1 (1=0-20%)
- percentage damage caused to the plant, SETFA [10]: 3 (3=41-60%)

SMILES: CCn1c(-c2ccc(Cl)c(Cl)c2)c(C(=O)O)c(=O)c2c(C(F)(F)F)cccc21 [Compound 2, 2-(3,4-dichlorophenyl)-1-ethyl-4-oxo-5-(trifluoromethyl)quinoline-3-carboxylic acid]
- percentage damage caused to the plant, IPOHE [1]: 2 (2=21-40%)
- percentage damage caused to the plant, SOLNI [11]: 2 (2=21-40%)
- percentage damage caused to the plant, ZEAMX [2]: 1 (1=0-20%)
- percentage damage caused to the plant, ECHCG [3]: 5 (5=81-100%)
- percentage damage caused to the plant, ABUTH [12]: 3 (3=41-60%)
- percentage damage caused to the plant, LOLPE [13]: 1 (1=0-20%)
- percentage damage caused to the plant, ZEAMX [4]: 3 (3=41-60%)
- percentage damage caused to the plant, AMARE [5]: 2 (2=21-40%)
- percentage damage caused to the plant, IPOHE [6]: 3 (3=41-60%)
- percentage damage caused to the plant, SOLNI [14]: 2 (2=21-40%)
- percentage damage caused to the plant, SETFA [7]: 4 (4=61-80%)
- percentage damage caused to the plant, ECHCG [8]: 5 (5=81-100%)
- percentage damage caused to the plant, ABUTH [9]: 2 (2=21-40%)
- percentage damage caused to the plant, LOLPE [15]: 0
- percentage damage caused to the plant, AMARE [16]: 2 (2=21-40%)
- percentage damage caused to the plant, SETFA [10]: 5 (5=81-100%)

SMILES: CCn1c(-c2ccc(Cl)c(Cl)c2)c(C(=O)O)c(=O)c2cc(C)ccc21 [Compound 14, 2-(3,4-dichlorophenyl)-1-ethyl-6-methyl-4-oxo-quinoline-3-carboxylic acid]
- percentage damage caused to the plant, IPOHE [1]: 2 (2=21-40%)
- percentage damage caused to the plant, ZEAMX [2]: 2 (2=21-40%)
- percentage damage caused to the plant, AMAPA [17]: 5 (5=81-100%)
- percentage damage caused to the plant, ECHCG [3]: 3 (3=41-60%)
- percentage damage caused to the plant, AMAPA [18]: 5 (5=81-100%)
- percentage damage caused to the plant, ZEAMX [4]: 2 (2=21-40%)
- percentage damage caused to the plant, AMARE [5]: 5 (5=81-100%)
- percentage damage caused to the plant, IPOHE [6]: 3 (3=41-60%)
- percentage damage caused to the plant, SETFA [7]: 3 (3=41-60%)
- percentage damage caused to the plant, ECHCG [8]: 4 (4=61-80%)
- percentage damage caused to the plant, AMARE [16]: 5 (5=81-100%)
- percentage damage caused to the plant, SETFA [10]: 4 (4=61-80%)
